# Data taken from patent US8664203B2, “Thiazole derivatives and their use as P2Y12 receptor antagonists” (Actelion Pharmaceuticals Ltd., priority 2009, dated 2014).
# pIC50: −log10 of the molar value. Structures can show the parent of a compound that is named as a salt.
# Molecular target: T1, human P2Y12 receptor (Homo sapiens, UniProt Q9H244)
# T1 construct: expressed in transfected cells; host or cells: CHO cells
# Assay: P2Y12 receptor binding assay
# Details: CHO cells with recombinant expression of the human P2Y12 receptor; tritium-labeled 2-methyl-S-ADP; RT, 2 hours
# Procedure: P2Y12 Receptor Binding Assay
# Chinese Hamster Ovary (CHO) cells with recombinant expression of the human P2Y12 receptor were cultured in 24 well cell-culture plates. Cells were washed three times with binding buffer (50 mM Tris pH 7.4, 100 mM NaCl, 1 mM EDTA, 0.5% BSA). The cells were then incubated with 0.5 ml per well binding buffer containing tritium-labeled 2-methyl-thio-adenosine 5′-diphosphate (2-methyl-S-ADP) (between 100′000 and 300′000 dpm per well) and various concentrations of test compounds. After incubation at RT for 2 hours, cells were washed three times with binding buffer. Then, cells were solubilized by addition of 0.5 ml solubilization buffer (SDS, NaOH, EDTA). The content of each well was then transferred into beta-counter vials and 2.0 ml of Ultima Gold Scintillation liquid was added.
# T1 sequence (Q9H244 whole entry): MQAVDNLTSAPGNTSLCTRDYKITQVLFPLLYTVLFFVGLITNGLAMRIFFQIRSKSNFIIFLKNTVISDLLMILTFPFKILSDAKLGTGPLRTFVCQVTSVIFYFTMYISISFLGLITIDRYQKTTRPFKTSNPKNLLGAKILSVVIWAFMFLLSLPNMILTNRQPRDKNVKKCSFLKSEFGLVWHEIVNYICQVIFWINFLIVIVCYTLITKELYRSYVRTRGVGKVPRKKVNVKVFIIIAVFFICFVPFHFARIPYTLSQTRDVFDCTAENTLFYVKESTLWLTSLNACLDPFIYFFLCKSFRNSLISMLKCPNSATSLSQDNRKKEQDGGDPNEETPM
row,Compound,pIC50
1,"CCCCOC(=O)N1CCN(C(=O)[C@H](CCC(=O)O)NC(=O)c2nc(-c3ccccc3)sc2N2CC[C@H](OC)C2)CC1 [Example 25, 4-((S)-4-Carboxy-2-{[5-((S)-3-methoxy-pyrrolidin-1-yl)-2-phenyl-thiazole-4-carbonyl]-amino}-butyryl)-piperazine-1-carboxylic acid butyl ester]",8.52
2,"CCCCOC(=O)N1CCN(C(=O)[C@H](Cc2ccc(P(=O)(O)O)cc2)NC(=O)c2csc(-c3ccccc3)n2)CC1 [Example 11, 4-[(S)-2-[(2-Phenyl-thiazole-4-carbonyl)-amino]-3-(4-phosphono-phenyl)-propionyl]-piperazine-1-carboxylic acid butyl ester]",9.00
3,"CCCCOC(=O)N1CCN(C(=O)CNC(=O)c2nc(-c3ccccc3)sc2/C=C/C(=O)O)CC1 [Example 31, 4-(2-{[5-((E)-2-Carboxy-vinyl)-2-phenyl-thiazole-4-carbonyl]-amino}-acetyl)-piperazine-1-carboxylic acid butyl ester]",7.72
4,"CCCCOC(=O)N1CCN(C(=O)[C@H](CO)NC(=O)c2nc(-c3ccccc3)sc2Br)CC1 [Example 37, 4-{(S)-2-[(5-Bromo-2-phenyl-thiazole-4-carbonyl)-amino]-3-hydroxy-propionyl}-piperazine-1-carboxylic acid butyl ester]",6.16
5,"CCCCOC(=O)N1CCN(C(=O)[C@H](Cc2ccc(P(=O)(OCC)OCC)cc2)NC(=O)c2csc(-c3ccccc3)n2)CC1 [Example 10, 4-{(S)-3-[4-(Diethoxy-phosphoryl)-phenyl]-2-[(2-phenyl-thiazole-4-carbonyl)-amino]-propionyl}-piperazine-1-carboxylic acid butyl ester]",6.20
6,"CCCCOC(=O)N1CCN(C(=O)[C@H](CP(=O)(O)O)NC(=O)c2nc(-c3ccccc3)c(-c3ccccc3)s2)CC1 [Example 49, 4-{(R)-2-[(4,5-Diphenyl-thiazole-2-carbonyl)-amino]-3-phosphono-propionyl}-piperazine-1-carboxylic acid butyl ester]",6.82
7,"CCCCOC(=O)N1CCN(C(=O)[C@H](CP(=O)(OCC)OCC)NC(=O)c2nc(-c3ccccc3)sc2-c2ccccc2)CC1 [Example 42, 4-{(R)-3-(Diethoxy-phosphoryl)-2-[(2,5-diphenyl-thiazole-4-carbonyl)-amino]-propionyl}-piperazine-1-carboxylic acid butyl ester]",5.66
8,"CCCCOC(=O)N1CCN(C(=O)[C@H](CCC(=O)O)NC(=O)c2nc(-c3ccccc3)sc2[C@H]2C[C@@H]2COC)CC1 [Example 18, 4-((S)-4-Carboxy-2-{[5-((1S,2S)-2-methoxymethyl-cyclopropyl)-2-phenyl-thiazole-4-carbonyl]-amino}-butyryl)-piperazine-1-carboxylic acid butyl ester]",7.96
9,"CCCCOC(=O)N1CCN(C(=O)CNC(=O)c2nc(-c3ccccc3)sc2NCCCOC)CC1 [Example 28, 4-(2-{[5-(3-Methoxy-propylamino)-2-phenyl-thiazole-4-carbonyl]-amino}-acetyl)-piperazine-1-carboxylic acid butyl ester]",7.33
10,"CCCCOC(=O)N1CCN(C(=O)[C@H](CO)NC(=O)c2nc(-c3ccccc3)sc2/C=C/C(=O)O)CC1 [Example 39, 4-((S)-2-{[5-((E)-2-Carboxy-vinyl)-2-phenyl-thiazole-4-carbonyl]-amino}-3-hydroxy-propionyl)-piperazine-1-carboxylic acid butyl ester]",7.46
11,"CCOC(=O)N1CCN(C(=O)[C@H](Cc2ccc(P(=O)(O)O)cc2)NC(=O)c2csc(-c3ccccc3)n2)CC1 [Example 13, 4-[(S)-2-[(2-Phenyl-thiazole-4-carbonyl)-amino]-3-(4-phosphono-phenyl)-propionyl]-piperazine-1-carboxylic acid ethyl ester]",8.70
12,"CCCCOC(=O)N1CCN(C(=O)CNC(=O)c2nc(-c3ccccc3)sc2-c2cccc(F)c2)CC1 [Example 29, 4-(2-{[5-(3-Fluoro-phenyl)-2-phenyl-thiazole-4-carbonyl]-amino}-acetyl)-piperazine-1-carboxylic acid butyl ester]",6.28
13,"CCCCOC(=O)N1CCN(C(=O)[C@H](CP(=O)(OCC)OCC)NC(=O)c2nc(-c3ccccc3)sc2N2CCN(C)CC2)CC1 [Example 44, 4-((R)-3-(Diethoxy-phosphoryl)-2-{[5-(4-methyl-piperazin-1-yl)-2-phenyl-thiazole-4-carbonyl]-amino}-propionyl)-piperazine-1-carboxylic acid butyl ester]",5.38
14,"CCCCOC(=O)N1CCN(C(=O)[C@H](CCC(=O)O)NC(=O)c2csc(-c3ccccc3)n2)CC1 [Example 7, 4-{(S)-4-Carboxy-2-[(2-phenyl-thiazole-4-carbonyl)-amino]-butyryl}-piperazine-1-carboxylic acid butyl ester]",7.80

# Results, then the molecule that gave them:
row,pIC50,Compound
1,6.42,"CCCCOC(=O)N1CCN(C(=O)CNC(=O)c2nc(-c3ccccc3)c(/C=C/COC)s2)CC1 [Example 51, 4-(2-{[5-((E)-3-Methoxy-propenyl)-4-phenyl-thiazole-2-carbonyl]-amino}-acetyl)-piperazine-1-carboxylic acid butyl ester]"
2,8.52,"CCCCOC(=O)N1CCN(C(=O)[C@H](CP(=O)(O)O)NC(=O)c2nc(-c3ccccc3)sc2N2CCN(C)CC2)CC1 [Example 45, 4-((R)-2-{[5-(4-Methyl-piperazin-1-yl)-2-phenyl-thiazole-4-carbonyl]-amino}-3-phosphono-propionyl)-piperazine-1-carboxylic acid butyl ester; hydrochloride]"
3,8.52,"CCCCOC(=O)N1CCN(C(=O)[C@H](CP(=O)(O)O)NC(=O)c2nc(-c3ccccc3)sc2N(C)CCCC)CC1 [Example 47, 4-((R)-2-{[5-(Butyl-methyl-amino)-2-phenyl-thiazole-4-carbonyl]-amino}-3-phosphono-propionyl)-piperazine-1-carboxylic acid butyl ester]"
4,7.00,"CCCCOC(=O)N1CCN(C(=O)CNC(=O)c2nc(-c3ccccc3)sc2CCCOC)CC1 [Example 35, 4-(2-{[5-(3-Methoxy-propyl)-2-phenyl-thiazole-4-carbonyl]-amino}-acetyl)-piperazine-1-carboxylic acid butyl ester]"
5,7.39,"CCCCOC(=O)N1CCN(C(=O)[C@H](CCC(=O)O)NC(=O)c2nc(-c3ccccc3)sc2Br)CC1 [Example 15, 4-{(S)-2-[(5-Bromo-2-phenyl-thiazole-4-carbonyl)-amino]-4-carboxy-butyryl}-piperazine-1-carboxylic acid butyl ester]"
6,6.57,"CCCCOC(=O)N1CCN(C(=O)CNC(=O)c2nc(-c3ccccc3)sc2/C=C/C(=O)OCC)CC1 [Example 30, 4-(2-{[5-((E)-2-Ethoxycarbonyl-vinyl)-2-phenyl-thiazole-4-carbonyl]-amino}-acetyl)-piperazine-1-carboxylic acid butyl ester]"
7,8.22,"CCCCOC(=O)N1CCN(C(=O)[C@H](CP(=O)(O)O)NC(=O)c2nc(-c3ccccc3)c(Br)s2)CC1 [Example 48, 4-{(R)-2-[(5-Bromo-4-phenyl-thiazole-2-carbonyl)-amino]-3-phosphono-propionyl}-piperazine-1-carboxylic acid butyl ester]"
